Reference: the NIST ThermoML archive (doi:10.1016/j.jct.2007.08.002)
Where “and” joins values, the source holds several entries; their conditions need not be identical. Identical values can stand only once.

Assay: molar heat capacity at saturation pressure

NC12CC3CC(CC(C3)C1)C2 [tricyclo(3.3.1.1:3,7)decan-1-amine]
Settings | molar heat capacity
196.06 K, Crystal 3, Small (less than 1 g) adiabatic calorimetry | 135.44 J/K/mol
197.25 K, Crystal 3, Small (less than 1 g) adiabatic calorimetry | 136.86 J/K/mol
197.97 K, Crystal 3, Small (less than 1 g) adiabatic calorimetry | 137.6 J/K/mol
199.25 K, Crystal 3, Small (less than 1 g) adiabatic calorimetry | 139.1 J/K/mol
199.88 K, Crystal 3, Small (less than 1 g) adiabatic calorimetry | 139.77 J/K/mol
200.91 K, Crystal 3, Small (less than 1 g) adiabatic calorimetry | 140.93 J/K/mol
201.79 K, Crystal 3, Small (less than 1 g) adiabatic calorimetry | 142.09 J/K/mol
202.24 K, Crystal 3, Small (less than 1 g) adiabatic calorimetry | 142.51 J/K/mol
203.56 K, Crystal 3, Small (less than 1 g) adiabatic calorimetry | 144.09 J/K/mol
204.88 K, Crystal 3, Small (less than 1 g) adiabatic calorimetry | 145.75 J/K/mol
206.19 K, Crystal 3, Small (less than 1 g) adiabatic calorimetry | 147.58 J/K/mol
207.51 K, Crystal 3, Small (less than 1 g) adiabatic calorimetry | 149.24 J/K/mol
207.53 K, Crystal 3, Small (less than 1 g) adiabatic calorimetry | 149.33 J/K/mol
208.81 K, Crystal 3, Small (less than 1 g) adiabatic calorimetry | 151.16 J/K/mol
209.45 K, Crystal 3, Small (less than 1 g) adiabatic calorimetry | 152.07 J/K/mol
210.11 K, Crystal 3, Small (less than 1 g) adiabatic calorimetry | 152.9 J/K/mol
211.36 K, Crystal 3, Small (less than 1 g) adiabatic calorimetry | 154.9 J/K/mol
211.41 K, Crystal 3, Small (less than 1 g) adiabatic calorimetry | 154.9 J/K/mol
212.7 K, Crystal 3, Small (less than 1 g) adiabatic calorimetry | 156.73 J/K/mol
213.28 K, Crystal 3, Small (less than 1 g) adiabatic calorimetry | 157.97 J/K/mol
213.99 K, Crystal 3, Small (less than 1 g) adiabatic calorimetry | 158.89 J/K/mol
215.2 K, Crystal 3, Small (less than 1 g) adiabatic calorimetry | 161.05 J/K/mol
215.27 K, Crystal 3, Small (less than 1 g) adiabatic calorimetry | 161.05 J/K/mol
216.55 K, Crystal 3, Small (less than 1 g) adiabatic calorimetry | 163.3 J/K/mol
217.12 K, Crystal 3, Small (less than 1 g) adiabatic calorimetry | 164.54 J/K/mol
217.82 K, Crystal 3, Small (less than 1 g) adiabatic calorimetry | 165.71 J/K/mol
219.04 K, Crystal 3, Small (less than 1 g) adiabatic calorimetry | 168.28 J/K/mol
219.1 K, Crystal 3, Small (less than 1 g) adiabatic calorimetry | 168.28 J/K/mol
220.36 K, Crystal 3, Small (less than 1 g) adiabatic calorimetry | 170.95 J/K/mol
220.96 K, Crystal 3, Small (less than 1 g) adiabatic calorimetry | 172.36 J/K/mol
221.61 K, Crystal 3, Small (less than 1 g) adiabatic calorimetry | 173.61 J/K/mol
222.86 K, Crystal 3, Small (less than 1 g) adiabatic calorimetry | 176.6 J/K/mol
222.88 K, Crystal 3, Small (less than 1 g) adiabatic calorimetry | 176.77 J/K/mol
224.1 K, Crystal 3, Small (less than 1 g) adiabatic calorimetry | 179.84 J/K/mol
224.8 K, Crystal 3, Small (less than 1 g) adiabatic calorimetry | 181.75 J/K/mol
225.33 K, Crystal 3, Small (less than 1 g) adiabatic calorimetry | 183.17 J/K/mol
226.55 K, Crystal 3, Small (less than 1 g) adiabatic calorimetry | 186.91 J/K/mol
226.72 K, Crystal 3, Small (less than 1 g) adiabatic calorimetry | 187.57 J/K/mol
227.76 K, Crystal 3, Small (less than 1 g) adiabatic calorimetry | 190.82 J/K/mol
228.63 K, Crystal 3, Small (less than 1 g) adiabatic calorimetry | 194.14 J/K/mol
228.97 K, Crystal 3, Small (less than 1 g) adiabatic calorimetry | 195.22 J/K/mol
230.16 K, Crystal 3, Small (less than 1 g) adiabatic calorimetry | 200.21 J/K/mol
230.54 K, Crystal 3, Small (less than 1 g) adiabatic calorimetry | 202.12 J/K/mol
231.34 K, Crystal 3, Small (less than 1 g) adiabatic calorimetry | 205.78 J/K/mol
232.45 K, Crystal 3, Small (less than 1 g) adiabatic calorimetry | 211.52 J/K/mol
232.51 K, Crystal 3, Small (less than 1 g) adiabatic calorimetry | 211.69 J/K/mol
233.67 K, Crystal 3, Small (less than 1 g) adiabatic calorimetry | 218.01 J/K/mol
234.36 K, Crystal 3, Small (less than 1 g) adiabatic calorimetry | 222.33 J/K/mol
234.81 K, Crystal 3, Small (less than 1 g) adiabatic calorimetry | 225.16 J/K/mol
235.93 K, Crystal 3, Small (less than 1 g) adiabatic calorimetry | 233.22 J/K/mol
236.25 K, Crystal 3, Small (less than 1 g) adiabatic calorimetry | 235.72 J/K/mol
237.04 K, Crystal 3, Small (less than 1 g) adiabatic calorimetry | 242.28 J/K/mol
238.14 K, Crystal 3, Small (less than 1 g) adiabatic calorimetry | 251.85 J/K/mol and 251.6 J/K/mol
239.22 K, Crystal 3, Small (less than 1 g) adiabatic calorimetry | 261.49 J/K/mol
240.04 K, Crystal 3, Small (less than 1 g) adiabatic calorimetry | 267.14 J/K/mol
240.28 K, Crystal 3, Small (less than 1 g) adiabatic calorimetry | 268.64 J/K/mol
241.32 K, Crystal 3, Small (less than 1 g) adiabatic calorimetry | 272.38 J/K/mol
241.94 K, Crystal 2 | 272.22 J/K/mol
242.37 K, Crystal 2 | 270.55 J/K/mol
243.42 K, Crystal 2 | 261.16 J/K/mol
243.89 K, Crystal 2 | 258.16 J/K/mol
244.49 K, Crystal 2 | 249.93 J/K/mol
245.89 K, Crystal 2 | 240.12 J/K/mol
247.88 K, Crystal 2 | 229.23 J/K/mol
249.84 K, Crystal 2 | 225.07 J/K/mol
251.78 K, Crystal 2 | 223.16 J/K/mol
253.73 K, Crystal 2 | 223.33 J/K/mol
255.66 K, Crystal 2 | 225.49 J/K/mol
257.59 K, Crystal 2 | 226.9 J/K/mol
259.52 K, Crystal 2 | 229.98 J/K/mol
261.45 K, Crystal 2 | 233.3 J/K/mol
263.38 K, Crystal 2 | 237.13 J/K/mol
265.31 K, Crystal 2 | 241.62 J/K/mol
267.23 K, Crystal 2 | 247.19 J/K/mol
